The values below come from ChEMBL document CHEMBL4118290, “Synthesis of 1,5-Anhydro-d-fructose derivatives and evaluation of their inflammasome inhibitors” (Bioorg Med Chem, 2018).

As usually defined, the pIC50 is −log10 of the IC50, conventionally taken in molar units.

SMILES strings stand for the structures. pIC50: −log10 of the molar value. Active and inactive are the calls of the source. The rule behind the calls is not given here.

Assay [1] has as its target NACHT, LRR and PYD domains-containing protein 3 (Mus musculus) (UniProt Q8R4B8). The experiment in a line: Inhibition of nigericin-induced NLRP3 inflammasome activation in C57BL/6 mouse bone marrow derived macrophages assessed as reduction in LPS-stimulated processing of pro-IL-1beta to mature IL-1beta in cell lysate at 6.8 mM incubated for 1 hr followed by nigericin addition measured after 1 hr by Western blot analysis. A general note: In western blotting, separated proteins are transferred to a membrane and probed.

Assay [2] has the same target. The experiment in a line: Inhibition of nigericin-induced NLRP3-dependent pyroptosis in C57BL/6 mouse bone marrow derived macrophages assessed as restoration of LPS-stimulated decrease in intracellular ATP level incubated for 1 hr followed by nigericin addition measured after 1 hr by cell titer-glo reagent based luminescence assay.
Assay [3] concerns the target T1, NACHT, LRR and PYD domains-containing protein 3 (Homo sapiens, UniProt Q96P20). The experiment in a line: Inhibition of nigericin-induced NLRP3 inflammasome activation in PMA-differentiated human THP1 cells assessed as reduction in LPS-stimulated processing of pro-IL-1beta to mature IL-1beta in supernatant at 3.4 mM incubated for 1 hr followed by nigericin addition measured after 1 hr by Western blot analysis.

For assay [4], the target named is T1, NACHT, LRR and PYD domains-containing protein 3. The experiment in a line: Inhibition of nigericin-induced NLRP3 inflammasome activation in PMA-differentiated human THP1 cells assessed as reduction in LPS-stimulated processing of pro-IL-1beta to mature IL-1beta in cell lysate at 3.4 mM incubated for 1 hr followed by nigericin addition measured after 1 hr by Western blot analysis.

The target of assay [5] is NACHT, LRR and PYD domains-containing protein 3 (Mus musculus) (UniProt Q8R4B8). The experiment in a line: Inhibition of nigericin-induced NLRP3 inflammasome activation in C57BL/6 mouse bone marrow derived macrophages assessed as reduction in LPS-stimulated processing of pro-IL-1beta to mature IL-1beta in supernatant at 6.8 mM incubated for 1 hr followed by nigericin addition measured after 1 hr by Western blot analysis.

In assay [6] the target is NACHT, LRR and PYD domains-containing protein 3 (Mus musculus, UniProt Q8R4B8). Briefly: (§1) Inhibition of nigericin-induced NLRP3 inflammasome activation in C57BL/6 mouse bone marrow derived macrophages assessed as reduction in LPS-stimulated IL-1beta secretion incubated for 1 hr followed by nigericin addition measured after 1 hr by ELISA. (ELISA stands for enzyme-linked immunosorbent assay.)

For assay [7], the target named is NACHT, LRR and PYD domains-containing protein 3 (Mus musculus) (UniProt Q8R4B8). The description is as §1.
Assay [8] has as its target T1, NACHT, LRR and PYD domains-containing protein 3. Briefly: Inhibition of nigericin-induced NLRP3 inflammasome activation in PMA-differentiated human THP1 cells assessed as reduction in LPS-stimulated IL-1beta secretion incubated for 1 hr prior to stimulation with nigericin for 1 hr by quanti-blue based SEAP reporter gene assay. (In general: Reporter assays use an easily measured gene product as a stand-in for the process of interest.)

For assay [9] the target is unchanged. Briefly: Inhibition of nigericin-induced NLRP3 inflammasome activation in PMA-differentiated human THP1 cells assessed as reduction in LPS-stimulated IL-1beta secretion at 60 mM incubated for 1 hr prior to stimulation with nigericin for 1 hr by ELISA.
Assay [10] deals with NACHT, LRR and PYD domains-containing protein 3 (Mus musculus) (UniProt Q8R4B8). Briefly: Inhibition of nigericin-induced NLRP3 inflammasome activation in C57BL/6 mouse bone marrow derived macrophages assessed as reduction in LPS-stimulated processing of pro-IL-1beta to mature IL-1beta in cell lysate at 100 uM incubated for 1 hr followed by nigericin addition measured after 1 hr by Western blot analysis.

Assay [11] has the same target. The experiment in a line: Inhibition of nigericin-induced NLRP3 inflammasome activation in C57BL/6 mouse bone marrow derived macrophages assessed as reduction in LPS-stimulated processing of pro-IL-1beta to mature IL-1beta in supernatant at 100 uM incubated for 1 hr followed by nigericin addition measured after 1 hr by Western blot analysis.

T1 sequence (Q96P20 whole entry, the tested form may be a part): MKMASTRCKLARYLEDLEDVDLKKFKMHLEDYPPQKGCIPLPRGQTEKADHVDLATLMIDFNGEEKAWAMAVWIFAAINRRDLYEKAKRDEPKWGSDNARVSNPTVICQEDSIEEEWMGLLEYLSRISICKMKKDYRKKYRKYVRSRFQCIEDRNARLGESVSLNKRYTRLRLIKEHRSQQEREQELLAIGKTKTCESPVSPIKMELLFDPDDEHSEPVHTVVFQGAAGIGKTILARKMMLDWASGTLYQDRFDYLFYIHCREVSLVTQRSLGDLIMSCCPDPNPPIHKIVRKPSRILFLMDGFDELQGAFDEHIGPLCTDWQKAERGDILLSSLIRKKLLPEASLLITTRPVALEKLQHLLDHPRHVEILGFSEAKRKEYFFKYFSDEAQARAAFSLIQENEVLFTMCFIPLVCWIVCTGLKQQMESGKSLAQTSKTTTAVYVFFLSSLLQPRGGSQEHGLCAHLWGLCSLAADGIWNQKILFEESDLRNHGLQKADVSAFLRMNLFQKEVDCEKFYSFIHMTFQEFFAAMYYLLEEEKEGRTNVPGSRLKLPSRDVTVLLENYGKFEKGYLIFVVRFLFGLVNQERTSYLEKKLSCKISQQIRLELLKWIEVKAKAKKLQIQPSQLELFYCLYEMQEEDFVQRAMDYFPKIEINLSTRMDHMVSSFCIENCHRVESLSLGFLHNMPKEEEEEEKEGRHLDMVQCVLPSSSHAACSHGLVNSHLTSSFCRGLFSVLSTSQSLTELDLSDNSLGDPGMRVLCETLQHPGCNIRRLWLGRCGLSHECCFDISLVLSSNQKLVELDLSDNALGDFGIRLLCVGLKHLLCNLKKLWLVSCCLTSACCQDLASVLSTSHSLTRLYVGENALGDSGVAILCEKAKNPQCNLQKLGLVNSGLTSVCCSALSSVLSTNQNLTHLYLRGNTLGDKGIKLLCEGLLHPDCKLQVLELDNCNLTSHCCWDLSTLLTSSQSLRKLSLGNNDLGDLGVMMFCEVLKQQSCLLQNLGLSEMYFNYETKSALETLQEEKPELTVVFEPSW
Chain of NACHT, LRR and PYD domains-containing protein 3 (Mus musculus, UniProt Q8R4B8) (Q8R4B8 whole entry, the tested form may be a part): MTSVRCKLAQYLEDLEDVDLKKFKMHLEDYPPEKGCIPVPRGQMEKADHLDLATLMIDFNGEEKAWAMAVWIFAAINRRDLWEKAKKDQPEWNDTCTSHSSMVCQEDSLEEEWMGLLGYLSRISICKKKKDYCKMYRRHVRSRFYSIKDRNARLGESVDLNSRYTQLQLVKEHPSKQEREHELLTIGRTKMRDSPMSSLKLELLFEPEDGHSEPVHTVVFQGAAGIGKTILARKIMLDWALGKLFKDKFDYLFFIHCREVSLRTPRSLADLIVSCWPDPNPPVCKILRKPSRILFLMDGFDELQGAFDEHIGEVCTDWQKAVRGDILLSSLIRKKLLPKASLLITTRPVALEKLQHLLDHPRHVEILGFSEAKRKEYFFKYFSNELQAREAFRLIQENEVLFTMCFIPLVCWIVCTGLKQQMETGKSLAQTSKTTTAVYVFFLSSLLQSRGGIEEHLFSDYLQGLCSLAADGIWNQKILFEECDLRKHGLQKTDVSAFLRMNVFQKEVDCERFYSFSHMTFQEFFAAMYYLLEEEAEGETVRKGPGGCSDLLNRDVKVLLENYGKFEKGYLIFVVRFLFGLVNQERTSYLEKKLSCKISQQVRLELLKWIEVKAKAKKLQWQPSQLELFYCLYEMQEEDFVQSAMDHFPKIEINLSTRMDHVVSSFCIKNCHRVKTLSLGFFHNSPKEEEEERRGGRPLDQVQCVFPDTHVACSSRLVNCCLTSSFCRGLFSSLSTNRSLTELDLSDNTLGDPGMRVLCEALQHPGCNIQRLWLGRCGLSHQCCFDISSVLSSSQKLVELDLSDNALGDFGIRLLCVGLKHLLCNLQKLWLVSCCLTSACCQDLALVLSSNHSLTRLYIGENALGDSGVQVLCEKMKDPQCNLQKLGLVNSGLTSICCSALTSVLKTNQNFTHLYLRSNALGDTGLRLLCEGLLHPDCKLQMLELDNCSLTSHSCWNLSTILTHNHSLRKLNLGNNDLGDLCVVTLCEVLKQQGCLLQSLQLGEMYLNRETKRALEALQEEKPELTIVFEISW
Chain of NACHT, LRR and PYD domains-containing protein 3 (Mus musculus) (Q8R4B8 whole entry, the tested form may be a part): as above

In the case of `O=C1CO[C@H](CO)[C@@H](O)C1`, the inhibition entry in assay [1], in [3], in assay [4] and in assay [5] was “Active” in each case. The inhibition result in assay [2] and in assay [7] was “Dose-dependent effect” throughout. Also, the pIC50 in assay [6] was 2.80; in [8], 2.64.

Consider `CCCCCCCC(=O)OC[C@@H]1C=CC(=O)CO1`, for which the inhibition entry in assay [2] is “Dose-dependent effect”. In addition, the results for the pIC50 in [6] and in assay [8] were 5.08 and 5.29, respectively.

As to `O=C1CO[C@H](CO)[C@@H](O)[C@@H]1O`, the pIC50 in [6] is 1.54. The inhibition result in [7] is “Dose-dependent effect”. Moreover, the inhibition entry in [9] is “inactive”.

Consider `CC(=O)OC1=C(F)C(OC(C)=O)[C@@H]2CO[C@H]1O2` (stereo partly specified), for which the inhibition entry in [2] is “Dose-dependent effect”. Moreover, the pIC50 in [6] is 6.00; in [8] it was 5.43.

On to `O=C1C=C[C@H]2CO[C@@H]1O2`, for which the pIC50 in assay [6] is 5.92; in [8], 5.18.

Take `O=C1C=C[C@@H](CO)OC1`: the inhibition result in [2] and in assay [7] was “Dose-dependent effect” in each case. In assay [6], the pIC50 is 4.80. Moreover, the inhibition result in assay [10] and in assay [11] was “Active” in each case.

For `O=C1C(F)=C[C@@H]2CO[C@H]1O2` (single isomer, unassigned), the inhibition entry in assay [2] is “Dose-dependent effect”. Also, the results for the pIC50 in assay [6] and in assay [8] were 6.10 and 5.32, respectively.

On to `CCCC(=O)OC[C@@H]1C=CC(=O)CO1`, for which the inhibition result in assay [2] is “Dose-dependent effect”. Besides, the pIC50 in assay [6] and in [8] was 5.44 in each case.

As to `CC(=O)OC[C@@H]1C=CC(=O)CO1`, the inhibition entry in [2] is “Dose-dependent effect”. Moreover, the negative-log IC50 (pIC50) was 5.24 in assay [6] and 5.37 in assay [8].

Regarding `CC(=O)OC[C@@H]1C=C(F)C(=O)CO1`, in [2], the inhibition entry is “Dose-dependent effect”. The pIC50 in assay [6] was 5.49; in [8] it was 5.43.
